Experiments:
[1] = Stability of ICG in micelles in vitro (decay of fluorescence emission in water); assay type: physicochemical; settings: within forty-eight hours, deionized water, dark
Text: ICG has advantageous fluorescence properties for near-infrared imaging (NIR) in vivo but limitations include the molecule's photo, aqueous, and thermal instability as well as rapid binding to blood proteins and subsequent clearance by the liver. See, e.g., Cherrick, J. Clin. Invest. 39:592-600 (1959) and Kirchherr, et al., Mol. Pharmaceut. 6:480-491 (2009). Aqueous degradation of ICG occurs as a result of double bond saturation in the molecule's conjugated chain, and sequestering the molecule from the solvent radicals that activate this process reduces the rate of its degradation. See, e.g., Kirchherr et al., and Altinoglu and Adair, Wiley Interdisciplinary Reviews—Nanomedicine and Nanobiotechnology, 2:[…] (2010). To test the ability of the mixed micelle systems to stabilize ICG, the fluorescence of encapsulated dye was monitored over time at both room temperature and 37° C.
Stability of ICG in mixed micelles was evaluated by measuring decay of fluorescence emission in solution over a period of approximately ten days. […] At predetermined intervals, each mixture was sampled and the fluorescence intensity of the sample was evaluated with excitation at 775 nm and emission from 786 to 850 nm.

MDA-MB-435-MDR cells = experiment: Cytotoxicity, MTS assay; settings: 4 hours treatment, viability after 24 hours, 16 μg/mL DOX
Protocol: The cell lines which were used were the MDA-MB-435 (Parent) and MDA-MB-435-MDR (MDR) cell lines.
Cytotoxicity was measured by treating MDA-MB-435 (Parent) and MDA-MB-435-MDR cells for 4 hours with free doxorubicin and encapsulated doxorubicin using various formulations of mixed micelles. After 4 hours the doxorubicin was rinsed from the cells. After 24 hours the cell viability was measured using an MTS assay. MDA-MB-435 cells were treated with 4 μg/mL DOX, and […] cells were treated with 16 μg/mL DOX.

Structure (SMILES) | ICG fluorescence, % of original fluorescence value ([1]; 37° C.) | ICG fluorescence, % of original fluorescence value ([1]; room temperature) | cytotoxicity (cell viability, in words) (MDA-MB-435-MDR cells)
CC1(C)C(/C=C/C=C/C=C/C=C2\N(CCCCS(=O)(=O)O)c3ccc4ccccc4c3C2(C)C)=[N+](CCCCS(=O)(=O)[O-])c2ccc3ccccc3c21 [free ICG, indocyanine green] | less than 10% | less than 10% | –
COc1cccc2c1C(=O)c1c(O)c3c(c(O)c1C2=O)C[C@@](O)(C(=O)CO)C[C@@H]3O[C@H]1C[C@H](N)[C@H](O)[C@H](C)O1 [Unencapsulated DOX, Doxorubicin] | – | – | limited effect
